Molecules are shown by their SMILES. pIC50: −log10 of the molar value. Non-standard residues stand in square brackets, D forms with d. Residues, ends and D or L forms follow the SMILES beside them. ξ: configuration not given here. Met(O) = CS(=O)CC[C@H](N)C(=O)O; ξA = CC(N)C(=O)O; Sar = CNCC(=O)O

This experiment has as its target Delta-type opioid receptor (Cavia porcellus). In words: Evaluated for the inhibition of [3H]DADLE binding to Opioid receptor delta 1 of guinea pig brain.
Compound `CN(CC(=O)O)C(=O)[C@H](Cc1ccccc1)NC(=O)[C@H](CC[S+](C)[O-])NC(=O)[C@@H](N)Cc1ccc(O)cc1` (stereo partly specified) (H-Y[Met(O)]F[Sar]-OH) showed a pIC50 of 5.67.

In the case of `COC(=O)CN(C)C(=O)[C@H](Cc1ccccc1)NC(=O)[C@H](CC[S+](C)[O-])NC(=O)[C@H](Cc1ccc(O)cc1)N=C(N)N` (stereo partly specified), the pIC50 was 6.82.

With `CN(CC(N)=O)C(=O)[C@H](Cc1ccccc1)NC(=O)[C@H](CC[S+](C)[O-])NC(=O)[C@@H](N)Cc1ccc(O)cc1` (stereo partly specified) (H-Y[Met(O)]F[Sar]-NH2), the pIC50 is 6.36. The same measure for `COC(=O)CN(C)C(=O)[C@H](Cc1ccccc1)NC(=O)[C@H](CC[S+](C)[O-])NC(=O)[C@@H](N)Cc1ccc(O)cc1` (stereo partly specified) (H-Y[Met(O)]F[Sar]-OMe): 6.29; for `CC(NC(=O)[C@H](Cc1ccccc1)NC(=O)[C@H](CC[S+](C)[O-])NC(=O)[C@@H](N)Cc1ccc(O)cc1)C(N)=O` (stereo partly specified) (H-Y[Met(O)]F[ξA]-NH2): 6.05; for `C[C@@H](NC(=O)[C@@H](N)Cc1ccc(O)cc1)C(=O)N[C@@H](Cc1ccccc1)C(=O)NCC(N)=O` (H-Y[dA]FG-NH2): 6.09.
